For `Cc1ccccc1Nc1nc2ccc(CC(=O)Nc3ccc(C(C)CC(=O)O)nc3)cc2o1` (racemic) [Example 1, (3RS)-3-{5-[2-(2-o-Tolylamino-benzoxazol-6-yl)-acetylamino]-pyrid-2-yl}-butyric acid], the melting point was 195 to 196 °C (dec.).

— patent US6706738B2, “Substituted bicyclic heteroaryl compounds and their use as integrin antagonists” (Aventis Pharma Limited, priority 1999, dated 2004)
